Experimental data as given in US20240293352A1 (priority 2021, published 2024).

Assays:
[1] = test system: oncolytic RNA viruses including vesicular stomatitis virus (VSV) and measles; settings: cited from earlier work
[2] = test system: VSVD51-GFP in 786-0 cells; assay type: cell-based, human

Row | Compound | Replication and spread of oncolytic RNA viruses (in words) [1] | Approximate Peak Viral Sensitizer Dose [2] [µM] | Viral sensitization activity / VSVD51 spread (in words) [2]
1 | Cc1occc(=O)c1[O-].Cc1occc(=O)c1[O-].[O]=[V+2] [BMOV, bismaltolatoxovanadate] | improve the replication and spread of oncolytic RNA viruses |  | 
2 | [O]=[V]([O-])([O-])[O-] [Vanadate, vanadate, reference compound] |  | 200 | increase in GFP foci
3 | [O]=[V]([O-])([O-])[O-] [orthovanadate] | improve the replication and spread of oncolytic RNA viruses |  | 
4 | vanadium (IV) citrate [CDOS139] |  |  | exhibited viral sensitization activity
5 | vanadium (V) citrate [CDOS140] |  | 30 | exhibited viral sensitization activity
6 | vanadium (V) citrate peroxo [CDOS141] |  | 50 | exhibited viral sensitization activity
